Key:
[1] = target: T1, SotB N343A (Escherichia coli, UniProt P31122, N343A); test: SPR affinity assay, SotB variant N343A; format: binding
T1 construct: The full-length sotB and lapC genes from the E. coli MG1655 genome were subcloned into the cloning vector pET28a; 8xHis (C); made in house; host or cells: E. coli C43(DE3)
T1 sequence (P31122 1-396 N343A): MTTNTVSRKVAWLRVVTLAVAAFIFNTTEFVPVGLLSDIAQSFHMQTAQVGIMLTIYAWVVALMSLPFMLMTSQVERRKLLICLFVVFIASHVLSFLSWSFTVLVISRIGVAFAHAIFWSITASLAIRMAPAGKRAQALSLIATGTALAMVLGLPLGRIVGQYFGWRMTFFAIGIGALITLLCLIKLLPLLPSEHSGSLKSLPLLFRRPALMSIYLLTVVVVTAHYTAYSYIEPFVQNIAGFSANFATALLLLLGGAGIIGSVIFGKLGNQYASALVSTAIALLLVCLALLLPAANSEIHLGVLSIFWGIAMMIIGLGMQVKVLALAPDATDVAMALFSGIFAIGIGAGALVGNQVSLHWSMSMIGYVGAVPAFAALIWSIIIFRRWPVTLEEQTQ
Description: The instrument used in surface plasmon resonance (SPR) affinity assays was OpenSPR (Nicoya, Canada) and the chip used was COOH sensor chip (Nicoya, Canada). SotB and its variants were as ligands. IPTG, L-arabinose, D-xylose, D-glucose, D-fructose, and D-mannose were as small molecules. Using HSB-EP buffer (10 mM HEPES, 150 mM NaCl, 3 mM EDTA, 0.005% Tween-20, pH7.4) as test buffer and setting flow rate 150 μl/min after installed COOH chip according to OpenSPRTM instrument standard operating procedure. After the signal baseline was reached, loading 200 μl 80% isopropyl alcohol and ran for 10 s to drain bubbles. After reaching baseline, the sample ring was rinsed with HSB-EP buffer and emptied with air. After the signal reached the baseline, loading 200 μl EDC (400 mM, Sigma)/NHS (100 mM, Sigma; 1:1) solution with a flow rate 20 μl/min for 4 min. Then, loading 200 μl ligand (SotB/SotB variants) diluted by the activation buffer (sodium acetate, 10 mM, pH3.5) and ran for 4 min (20 μl/min). Then the sample ring was rinsed with HSB-EP buffer and emptied with air. Loading 200 μl 1 M ethanolamine (Sigma) blocking solution (20 μl/min, 4 min), rinsed the sample ring with HSB-EP buffer, and emptied the sample ring with air. Observing baseline for 5 min to ensure stability. The small molecules were diluted with PBS buffer (2 mM of KH2PO4, 10 mM of Na2HPO4, 2.7 mM of KCl, and 137 mM of NaCl at pH 7.4), and the concentration was shown in the experimental results. The flow rate for small molecules was performed at 20 μl/min. The binding time of small molecule and ligand was 240 s, and the dissociation was 240 s. The analysis software used for the experimental results was TraceDrawer, and the analysis method was one-to-one analysis model.

[2] = tested on: intact E. coli MG1655 strain; test: Growth curve (L-arabinose inhibition / D-xylose competition) assay, intact MG1655; format: cell-based, Escherichia coli
From the text: (§1) In the process of sotB gene knockout, two plasmids were introduced into E. coli MG1655 strain: the plasmid pEcCas expressing Cas9 protein (kanamycin resistance) and the plasmid pEcgRNA/sotB expressing related gRNA (spectinomycin resistance). The pEcCas plasmid was successfully eliminated in this study. […] Thus, the sotB-deletion strain has resistance to spectinomycin. In order to carry out the related L-arabinose inhibition assay more strictly, the same plasmid (pEcgRNA/sotB) was then transformed into intact E. coli MG1655 cells, and the growth conditions of the two strains were measured as follows: The E. coli MG1655 cells (intact cells and sotB-deletion cells) were grown in liquid LB medium containing spectinomycin (50 μg/ml) at 37°C for overnight. The cells were then diluted to an OD600 value of 0.8 with liquid LB medium containing spectinomycin (50 μg/ml). Then, the cells were further diluted 1,000 times with liquid LB medium containing spectinomycin (50 μg/ml). The diluted cells were added to a 96-well plate (200 μl/well). Then, L-arabinose was added with final concentrations of 0 μM, 10 μM, 100 μM, 1 mM, 10 mM, and 100 mM, respectively. The 96-well plate was incubated at 37°C, and the OD600 value was measured every 1 h with a microplate reader. For the competition assay, the intact MG1655 cells diluted 1,000 times were divided into two parts and then added into 96-well plate (200 μl/well). One part was directly added with D-xylose at a final concentration of 0, 1, and 10 mM, respectively; the other part was first added with L-arabinose at a final concentration of 10 mM, then D-xylose was added with final concentrations of 0, 1, and 10 mM, respectively. The method of growth curve measurement is the same as above. All the experiments were repeated at least three times.

[3] = tested on: sotB-deletion E. coli MG1655 strain; test: Growth curve (L-arabinose inhibition) assay, sotB-deletion MG1655; format: cell-based, Escherichia coli
From the text: as §1, with “For the competition assay, the intact MG1655 cells diluted 1,000 times were divided into two parts and then added into 96-well plate (200 μl/well). One part was directly added with D-xylose at a final concentration of 0, 1, and 10 mM, respectively; the other part was first added with L-arabinose at a final concentration of 10 mM, then D-xylose was added with final concentrations of 0, 1, and 10 mM, respectively. The method of growth curve measurement is the same as above. All the experiments were repeated at least three times.” left out

OC1OC[C@H](O)[C@H](O)[C@H]1O (mixture of isomers) [L-arabinose]
Binding affinity of N343A, fold lower than the wild-type protein ([1]; N343A vs wild-type SotB): 3.5 fold
Kd ([1]; SotB variant N343A, read-out: KD, binding affinity with N343A): 14.5 mM
Growth of intact MG1655 compared to sotB-deletion MG1655 ([2]; in the presence of 1 mM L-arabinose): grew better
Effect on growth (OD600 growth curve) ([2]; intact MG1655, 10 mM final concentration): significantly inhibit
Effect on growth (OD600 growth curve) ([2]; intact MG1655, 100 mM final concentration): significantly inhibit
Effect on growth (OD600 growth curve) ([3]; sotB-deletion MG1655, 10 mM final concentration): significantly inhibit
Effect on growth (OD600 growth curve) ([3]; sotB-deletion MG1655, 100 mM final concentration): significantly inhibit

Source: publication PMC9650428, “Mutagenesis and functional analysis of SotB: A multidrug transporter of the major facilitator superfamily from Escherichia coli” (Frontiers in Microbiology, 2022)
